Results from ChEMBL document CHEMBL1157969, “Stellettin A induces oxidative stress and apoptosis in HL-60 human leukemia and LNCaP prostate cancer cell lines” (J Nat Prod, 2006).
In brackets after ≈: the same amount, converted by molar mass. Activity calls are given as the source filed them. No cut-off for these calls is given here.

Tests used:
LNCaP [1] = assay: Induction of apoptosis in human LNCaP cells assessed as decrease in Bcl-2 levels at 20 […] after 24 hrs by immunoblot; type: functional, cell-based
LNCaP [2] = assay: Induction of apoptosis in human LNCaP cells assessed as increase in transcription of NADPH oxidase component p67phox after 5 hrs by immunoblot; type: functional, cell-based
LNCaP [3] = assay: Induction of apoptosis in human LNCaP cells assessed as increase in transcription of NADPH oxidase component p47phox after 5 hrs by immunoblot; type: functional, cell-based
LNCaP [4] = assay: Induction of apoptosis in human LNCaP cells assessed as increase in transcription of NADPH oxidase component p22phox after 5 hrs by immunoblot; type: functional, cell-based
HL-60 [5] = assay: Induction of apoptosis in human HL60 cells assessed as increase in caspase-3 levels at 1 […] after 24 hrs by immunoblot; type: functional, cell-based
HL-60 [6] = assay: Induction of apoptosis in human HL60 cells assessed as increase in transcription of NADPH oxidase component p67phox after 5 hrs by immunoblot; type: functional, cell-based
HL-60 [7] = assay: Induction of apoptosis in human HL60 cells assessed as increase in transcription of NOX5 after 5 hrs by immunoblot; type: functional, cell-based
HL-60 [8] = assay: Induction of apoptosis in human HL60 cells assessed as decrease in Bcl-2 levels at 1 […] after 24 hrs by immunoblot; type: functional, cell-based
LNCaP [9] = assay: Induction of apoptosis in human LNCaP cells assessed as ROS generation; type: functional, cell-based
LNCaP [10] = assay: Induction of apoptosis in human LNCaP cells assessed as mean fluorescence intensity of mitochondrial membrane potential dissipation at 20 ug/mL after 24 hrs; type: functional
LNCaP [11] = assay: Induction of apoptosis in human LNCaP cells assessed as apoptotic bodies at 20 ug/mL after 24 hrs by fluorescence microscopy; type: functional
HL-60 [12] = assay: Cytotoxicity against human HL60 cells after 48 hrs by MTT assay; type: functional, cell-based; conditions: HL-60, 48 h
LNCaP [13] = assay: Induction of apoptosis in human LNCaP cells assessed as increase in transcription of NADPH oxidase component gp91phox after 5 hrs by immunoblot; type: functional, cell-based
LNCaP [14] = assay: Induction of apoptosis in human LNCaP cells assessed as increase in FasL levels after 24 hrs by immunoblot; type: functional, cell-based
HL-60 [15] = assay: Induction of apoptosis in human HL60 cells assessed as apoptotic bodies at 4 ug/mL after 24 hrs by fluorescence microscopy; type: functional
HL-60 [16] = assay: Induction of apoptosis in human HL60 cells assessed as increase in transcription of NADPH oxidase component p47phox after 5 hrs by immunoblot; type: functional, cell-based
HL-60 [17] = assay: Induction of apoptosis in human HL60 cells assessed as mean fluorescence intensity of mitochondrial membrane potential dissipation at 4 ug/mL after 24 hrs; type: functional
HL-60 [18] = assay: Induction of apoptosis in human HL60 cells at 4 ug/mL after 24 hrs in presence of antisense caspase-3 oligonucleotide; type: functional, cell-based
HL-60 [19] = assay: Induction of apoptosis in human HL60 cells assessed as increase in transcription of NADPH oxidase component p22phox after 5 hrs by immunoblot; type: functional, cell-based
HL-60 [20] = assay: Induction of apoptosis in human HL60 cells assessed as increase in FasL levels after 24 hrs by immunoblot; type: functional, cell-based
LNCaP [21] = assay: Induction of apoptosis in human LNCaP cells assessed as increase in caspase-3 levels at 20 […] after 24 hrs by immunoblot; type: functional, cell-based
HL-60 [22] = assay: Induction of apoptosis in human HL60 cells assessed as increase in transcription of NOX1 after 5 hrs by immunoblot; type: functional, cell-based
HL-60 [23] = assay: Induction of apoptosis in human HL60 cells at 4 ug/mL after 24 hrs in presence of sense caspase-3 oligonucleotide; type: functional
HL-60 [24] = assay: Induction of apoptosis in human HL60 cells assessed as increase in transcription of NOX4 after 5 hrs by immunoblot; type: functional, cell-based
HL-60 [25] = assay: Induction of apoptosis in human HL60 cells assessed as increase in transcription of NADPH oxidase component gp91phox after 5 hrs by immunoblot; type: functional, cell-based
HL-60 [26] = assay: Induction of apoptosis in human HL60 cells assessed as mean fluorescence intensity of mitochondrial membrane potential dissipation at 1 ug/mL after 24 hrs; type: functional
LNCaP [27] = assay: Cytotoxicity against human LNCaP cells after 48 hrs by MTT assay; type: functional, cell-based

Structure (SMILES): C\C(=C/C=C/C(C)=C1/C(=O)C[C@H]2[C@@]3(C)CCC(=O)C(C)(C)[C@@H]3CC[C@]12C)c1ccc(C)c(=O)o1 [STELLETIN A]
- Activity (LNCaP [1]): inactive
- Activity (LNCaP [2]): inactive
- Activity (LNCaP [3]): inactive
- Activity (LNCaP [4]): inactive
- Activity (HL-60 [5]): Active
- Activity (HL-60 [6]): Dose-dependent effect
- Activity (HL-60 [7]): inactive
- Activity (HL-60 [8]): Active
- Activity (LNCaP [9]): Active
- Activity (LNCaP [10]): 38.82
- Activity (LNCaP [11]): <10%
- IC50 (HL-60 [12]): 0.4 µg/mL (≈ 0.865 µM)
- Activity (LNCaP [13]): inactive
- Activity (LNCaP [14]): Dose-dependent effect
- Activity (HL-60 [15]): 56%
- Activity (HL-60 [16]): Dose-dependent effect
- Activity (HL-60 [17]): 3.09
- Activity (HL-60 [18]): inactive
- Activity (HL-60 [19]): Dose-dependent effect
- Activity (HL-60 [20]): Dose-dependent effect
- Activity (LNCaP [21]): inactive
- Activity (HL-60 [22]): inactive
- Activity (HL-60 [23]): 51%
- Activity (HL-60 [24]): inactive
- Activity (HL-60 [25]): Dose-dependent effect
- Activity (HL-60 [26]): 23.28
- IC50 (LNCaP [27]): 120 µg/mL (≈ 259 µM)
